Assay results published in patent publication US20100240745A1, “METHOD OF TREATMENT OF INFLAMMATION IN HYPERTENSIVE PATIENTS” (NICOX S.A., priority 2009, published 2010).
Marks after values point to notes of the source that are not given here.

Test: 13-week double-blind, randomized clinical trial: office systolic blood pressure (SBP) in osteoarthritic patients with hypertension treated with renin-angiotensin system blockers
Type: in vivo, human
Details: for Difference in mean changes of SBP vs naproxen 500 mg / Difference in mean changes of SBP vs placebo / mean change in systolic blood pressure (SBP) vs baseline, mean ± SE: 13-week study; for mean change in systolic blood pressure (SBP) vs baseline, mean ± SE: osteoarthritic hypertensive patients on RAS blockers alone or with a diuretic; for blood pressure elevation / BP destabilization (result in words): osteoarthritic hypertensive patients treated with at least a renin-angiotensin system blocking agent
Experimental: Effects of 4-(nitrooxy)butyl(2S)-2-(6-methoxy-2-naphthyl)propanoate (naproxcinod) and naproxen on systolic blood pressure (SBP).
The effects of two twice daily drug regimens (375 mg bid and 750 mg bid) of 4-(nitrooxy)butyl(2S)-2-(6-methoxy-2-naphthyl)propanoate (naproxcinod) on systolic blood pressure (SBP) vs. naproxen and placebo were studied in a 13-week double-blind, randomized clinical trial involving 207 osteoarthritic patients and hypertension treated with renin-angiotensin system blockers alone or in combination with a diuretic.
Patients were sequentially randomized in a 1:1:1:1 ratio using a validated remote automated system to receive for the 13-week study treatment period one of 4 treatment groups: • naproxcinod 750 mg twice daily, • naproxcinod 375 mg twice daily, • naproxen 500 mg (equimolar dose of naproxcinod 750 mg) twice daily, or • placebo twice daily.
The office SBP was measured in a standardized fashion by mercury column or aneroid device in supine position, at rest, at baseline and 2, 6, and 13 weeks after study treatment initiation. SBP measurements were to be performed 2 to 4 hours post-morning dose.
The comparability of the patients in the 4 treatment groups was determined from the demographic data and baseline BP values.

| SMILES | Difference in mean changes of SBP vs naproxen 500 mg (375 mg twice daily) [mmHg] | Difference in mean changes of SBP vs placebo (375 mg twice daily) [mmHg] | mean change in systolic blood pressure (SBP) vs baseline, mean ± SE (375 mg twice daily) [mmHg] | Difference in mean changes of SBP vs naproxen 500 mg (750 mg twice daily) [mmHg] | Difference in mean changes of SBP vs placebo (750 mg twice daily) | mean change in systolic blood pressure (SBP) vs baseline, mean ± SE (750 mg twice daily) [mmHg] | blood pressure elevation / BP destabilization (result in words) | blood pressure elevation / BP destabilization (result in words) (listed as 4-(nitrooxy)butyl(2S)-2-(6-methoxy-2-naphthyl)propanoate) | Difference in mean changes of SBP vs placebo (500 mg twice daily) | mean change in systolic blood pressure (SBP) vs baseline, mean ± SE (500 mg twice daily) [mmHg] |
| --- | --- | --- | --- | --- | --- | --- | --- | --- | --- | --- |
| COc1ccc2cc([C@H](C)C(=O)OCCCCO[N+](=O)[O-])ccc2c1 [naproxcinod, 4-(nitrooxy)butyl(2S)-2-(6-methoxy-2-naphthyl)propanoate] | −4.2 | 1.9 | −2.7 ± 1.7 | −6.5 | −0.4* mmHg | −5.0 ± 1.7 | less BP destabilization compared to naproxen | does not induce blood pressure elevation | – | – |
| COc1ccc2cc([C@H](C)C(=O)O)ccc2c1 [naproxen, reference compound] | – | – | – | – | – | – | – | – | 6.1** mmHg | 1.5 ± 1.9 |
